Experimental data published in patent publication US9908912B2, “Triclosan derivatives and uses thereof” (priority 2012, dated 2018).

Tests used:
[1] = test system: Str. pyogenes; experiment: MIC in Nutrient Agar; type: cell-based, Streptococcus pyogenes; conditions: Nutrient Agar containing 0.1 μg/ml of inducer; 37° C., 24 hours
Description: (§1) The triclosan-glycosides were added to Nutrient Agar (Oxoid CM0003; Thermofisher Scientific) and organisms were transferred onto the plates surface using a multi-point inoculation device (Oxoid Cathra, Thermofisher Scientific). The latter is essentially a metal plate containing a number of needles. Each needle tip (usually 36 per plate) dips into an organism suspension (in phosphate buffered saline; PBS) and the needles are then moved over the agar plate and lowered onto its surface. In this way the growth of colonies of up to 36 different organisms can be observed on one plate.
(§2) Nutrient Agar No. 2 was prepared according to the manufacturers instructions, autoclaved and cooled to 50° C. Test compounds were then added as filter sterilised solutions (50:50 deionised water:ethanol), to give final concentrations from 256 μg/ml to 0 μg/ml in doubling dilutions. […] The mixtures were swirled then four plates (25 ml molten agar) were poured for each concentration. Plates were dried in a laminar flow cabinet then inoculated with overnight cultures of organisms that had been decimally diluted twice in sterile saline solution (approximately 10^7 cfu/ml) using a multi-point inoculator. Plates were then incubated at 37° C. for 24 hours. MICs were determined as the concentration at which no growth was observed.

[2] = test system: Hafnia alvei; experiment: MIC in Nutrient Agar; type: cell-based; conditions: Nutrient Agar containing 0.1 μg/ml of inducer; 37° C., 24 hours
Description: as §1, §2

[3] = test system: Ps. aeruginosa; experiment: MIC in Nutrient Agar; type: cell-based; conditions: Nutrient Agar containing 0.1 μg/ml of inducer; 37° C., 24 hours
Description: as §1, §2

[4] = test system: Bacillus cereus; experiment: MIC in Nutrient Agar; type: cell-based; conditions: Nutrient Agar containing 0.1 μg/ml of inducer; 37° C., 24 hours
Description: as §1, §2

[5] = test system: Ent. aerogenes; experiment: MIC in Nutrient Agar; type: cell-based, Enterobacter aerogenes; conditions: Nutrient Agar containing 0.1 μg/ml of inducer; 37° C., 24 hours
Description: as §1, §2

[6] = test system: Ent. cloacae; experiment: MIC in Nutrient Agar; type: cell-based, Enterobacter cloacae; conditions: Nutrient Agar containing 0.1 μg/ml of inducer; 37° C., 24 hours
Description: as §1, §2

[7] = test system: Staph. aureus; experiment: MIC in Nutrient Broth No. 2; type: cell-based, Staphylococcus aureus; conditions: 8 strains, Nutrient Broth No. 2
Description: (§3) Bacteria species as indicated in Table 1 were incubated for approximately 24 hours at 37° C.
(§4) The tests were repeated with the addition of inducers. Methyl glycoside was the main inducer used, but other suitable inducers include isopropyl-β-D-thiogalactopyranoside, p-nitrophenyl-α-L-arabinopyranoside and p-nitrophenyl-β-D-xylopyranoside. Concentration of inducer in all cases was 100 μg/ml.

[8] = test system: Strep. pneumoniae ATCC 6305; experiment: MIC in Nutrient Broth No. 2; type: cell-based, Streptococcus pneumoniae; conditions: Nutrient Broth No. 2
Description: as §3, §4

[9] = test system: Kleb. aerogenes; experiment: MIC in Nutrient Agar; type: cell-based, Klebsiella aerogenes; conditions: Nutrient Agar containing 0.1 μg/ml of inducer; 37° C., 24 hours
Description: as §1, §2

[10] = test system: Ent. faecalis; experiment: MIC in Nutrient Agar; type: cell-based, Enterococcus faecalis; conditions: Nutrient Agar containing 0.1 μg/ml of inducer; 37° C., 24 hours
Description: as §1, §2

[11] = test system: Cr. sakazakii; experiment: MIC in Nutrient Agar; type: cell-based, Cronobacter sakazakii; conditions: Nutrient Agar containing 0.1 μg/ml of inducer; 37° C., 24 hours
Description: as §1, §2

[12] = test system: Staph. saprophyticus ATCC 15305; experiment: MIC in Nutrient Broth No. 2; type: cell-based, Staphylococcus saprophyticus; conditions: Nutrient Broth No. 2
Description: as §3, §4

[13] = test system: Kleb. aerogenes NCTC 88167; experiment: MIC in Nutrient Broth No. 2; type: cell-based, Klebsiella aerogenes; conditions: Nutrient Broth No. 2
Description: as §3, §4

[14] = test system: S. saprophyticus; experiment: MIC in Nutrient Agar; type: cell-based, Staphylococcus saprophyticus; conditions: Nutrient Agar containing 0.1 μg/ml of inducer; 37° C., 24 hours
Description: as §1, §2

[15] = test system: S. haemolyticus; experiment: MIC in Nutrient Agar; type: cell-based, Staphylococcus haemolyticus; conditions: Nutrient Agar containing 0.1 μg/ml of inducer; 37° C., 24 hours
Description: as §1, §2

[16] = test system: S. epidermidis; experiment: MIC in Nutrient Agar; type: cell-based, Staphylococcus epidermidis; conditions: 3 strains; Nutrient Agar containing 0.1 μg/ml of inducer; 37° C., 24 hours
Description: as §1, §2

[17] = test system: C. freundii; experiment: MIC in Nutrient Agar; type: cell-based, Citrobacter freundii; conditions: Nutrient Agar containing 0.1 μg/ml of inducer; 37° C., 24 hours
Description: as §1, §2

[18] = test system: Crono. sakazakii ATCC 29544; experiment: MIC in Nutrient Broth No. 2; type: cell-based, Cronobacter sakazakii; conditions: Nutrient Broth No. 2
Description: as §3, §4

[19] = test system: Hafnia alvei ATCC 13337; experiment: MIC in Nutrient Broth No. 2; type: cell-based; conditions: Nutrient Broth No. 2
Description: as §3, §4

[20] = test system: Citrobacter freundii OCC 851; experiment: MIC in Nutrient Broth No. 2; type: cell-based; conditions: Nutrient Broth No. 2
Description: as §3, §4

[21] = test system: Proteus mirabilis ATCC 12453; experiment: MIC in Nutrient Broth No. 2; type: cell-based; conditions: Nutrient Broth No. 2
Description: as §3, §4

[22] = test system: Proteus vulgaris OCC 195; experiment: MIC in Nutrient Broth No. 2; type: cell-based; conditions: Nutrient Broth No. 2
Description: as §3, §4

[23] = test system: Bacillus cereus ATCC 14579; experiment: MIC in Nutrient Broth No. 2; type: cell-based; conditions: Nutrient Broth No. 2
Description: as §3, §4

[24] = test system: Aeromonas hydrophila OCC 778; experiment: MIC in Nutrient Broth No. 2; type: cell-based; conditions: Nutrient Broth No. 2
Description: as §3, §4

[25] = test system: Enterococcus faecalis ATCC 29212; experiment: MIC in Nutrient Broth No. 2; type: cell-based; conditions: Nutrient Broth No. 2
Description: as §3, §4

[26] = test system: Enterococcus faecium ATCC 19434; experiment: MIC in Nutrient Broth No. 2; type: cell-based; conditions: Nutrient Broth No. 2
Description: as §3, §4

[27] = test system: Escherichia coli; experiment: MIC in Nutrient Broth No. 2; type: cell-based; conditions: 8 strains, Nutrient Broth No. 2
Description: as §3, §4

[28] = test system: Enterobacter aerogenes ATCC 13048; experiment: MIC in Nutrient Broth No. 2; type: cell-based; conditions: Nutrient Broth No. 2
Description: as §3, §4

[29] = test system: Salmonella; experiment: MIC in Nutrient Broth No. 2; type: cell-based; conditions: 11 strains, Nutrient Broth No. 2
Description: as §3, §4

[30] = test system: Serratia marcescens OCC 217; experiment: MIC in Nutrient Broth No. 2; type: cell-based; conditions: Nutrient Broth No. 2
Description: as §3, §4

[31] = test system: Ps. Aeruginosa ATCC 27853; experiment: MIC in Nutrient Broth No. 2; type: cell-based; conditions: Nutrient Broth No. 2
Description: as §3, §4

[32] = test system: Bacillus subtilis NCTC 10073; experiment: MIC in Nutrient Broth No. 2; type: cell-based; conditions: Nutrient Broth No. 2
Description: as §3, §4

[33] = test system: Ent. cloacae ATCC 13047; experiment: MIC in Nutrient Broth No. 2; type: cell-based, Enterobacter cloacae; conditions: Nutrient Broth No. 2
Description: as §3, §4

Measured: MIC

OC[C@H]1O[C@H](Oc2cc(Cl)ccc2Oc2ccc(Cl)cc2Cl)[C@@H](O)[C@@H](O)[C@@H]1O [α-D-Mannoside, triclosan-α-D-mannopyranoside]
2 to 8 µg/mL: [7]; with inducer 100 μg/ml | [7]; without inducer
32 µg/mL: [9] | [12]; with inducer 100 μg/ml | [12]; without inducer | [13]; with inducer 100 μg/ml | [13]; without inducer | [14] | [18]; with inducer 100 μg/ml | [22]; with inducer 100 μg/ml | [22]; without inducer | [28]; with inducer 100 μg/ml | [28]; without inducer
4 to 32 µg/mL: [27]; with inducer 100 μg/ml
8 µg/mL: [15] | [16] | [21]; with inducer 100 μg/ml | [33]; with inducer 100 μg/ml | [33]; without inducer
128 µg/mL: [4] | [8]; with inducer 100 μg/ml | [18]; without inducer | [32]; without inducer
8 to 32 µg/mL: [29]; with inducer 100 μg/ml
16 µg/mL: [6] | [21]; without inducer
>256 µg/mL: [3] | [24]; with inducer 100 μg/ml | [24]; without inducer | [30]; with inducer 100 μg/ml | [30]; without inducer | [31]; with inducer 100 μg/ml | [31]; without inducer
4 to 64 µg/mL: [27]; without inducer
64 µg/mL: [1] | [5] | [8]; without inducer | [11] | [17] | [20]; with inducer 100 μg/ml | [20]; without inducer
16 to 64 µg/mL: [29]; without inducer
256 µg/mL: [10] | [23]; with inducer 100 μg/ml | [23]; without inducer | [25]; with inducer 100 μg/ml | [25]; without inducer | [26]; with inducer 100 μg/ml | [26]; without inducer | [32]; with inducer 100 μg/ml
4 µg/mL: [2] | [19]; with inducer 100 μg/ml | [19]; without inducer
